We go through seven molecules from patent US6222043A, “Methods of preparing novel dipeptide compounds or pharmaceutically acceptable salts thereof” (Japan Energy Corporation, priority 1995, dated 2001).

This data set is described as follows: Pharmacokinetics in rats, intravenous or intraduodenal administration. The format is in vivo. Conditions: rat. The procedure: Metabolic characteristics of the dipeptide compounds of the present invention was evaluated using rats. Tested compounds dissolved in vehicle was administered intraduodenally or intravenously. After administration, blood was taken and the concentration of residual tested compound in plasma was analyzed. The dosage of the tested compound was described in table 3.

A word on the MRT: it is the average time that molecules of a dose stay in the body.

SMILES strings stand for the structures.

Turning to `Cc1c(O)cccc1C(=O)N[C@@H](Cc1ccccc1)[C@H](O)C(=O)N1CSC[C@H]1C(=O)NC(C)(C)C` [Compound of example 21, (R)-N-tert-butyl-3-[(2S,3S)-2-hydroxy-3-[3-hydroxy-2-methylbenzoyl]amino-4-phenylbutanoyl]-1,3-thiazolidine-4-carboxamide], for the setting “i.d., 20.0 mg/kg”, the AUC turned out to be 101 µg/mL/min and the “F (bioavailability on intraduodenal administration)” value is reported as 45.41%. For the same molecule, where the note is “i.v., 10.0 mg/kg”, the AUC came to 111 µg/mL/min, the MRT stood at 31.7 min and the “t1/2 (λ)” value came to 35.98 min.

In the case of `Cc1c(O)cccc1C(=O)N[C@@H](Cc1ccccc1)[C@H](O)C(=O)N1CSC(C)(C)[C@H]1C(=O)NC(C)(C)C` [Compound of example 22, (R)-N-tert-butyl-3-[(2S,3S)-2-hydroxy-3-[3-hydroxy-2-methylbenzoyl]amino-4-phenylbutanoyl]-5,5-dimethyl-1,3-thiazolidine-4-carboxamide], under “i.d., 20.0 mg/kg”, the AUC stood at 106 µg/mL/min and the “F (bioavailability on intraduodenal administration)” value turned out to be 47.53%. For the setting “i.v., 10.0 mg/kg”, the AUC stood at 111 µg/mL/min, the MRT is 22.9 min and the “t1/2 (λ)” value was 23.89 min.

For the molecule `CCc1c(O)cccc1C(=O)N[C@@H](Cc1ccccc1)[C@H](O)C(=O)N1CSC[C@H]1C(=O)NC(C)(C)C` [Compound of example 31, (R)-N-tert-butyl-3-[(2S,3S)-2-hydroxy-3-(2-ethyl-3-hydroxybenzoyl)amino-4-phenylbutanoyl]-1,3-thiazolidine-4-carboxamide], where the note is “i.d., 10.0 mg/kg”, the AUC is 99 µg/mL/min and the “F (bioavailability on intraduodenal administration)” value stood at 36.24%. For the same molecule, under “i.v., 10.0 mg/kg”, the AUC is 276 µg/mL/min, the MRT is reported as 96.0 min and the “t1/2 (λ)” value stood at 73.81 min.

For the molecule `Cc1ccccc1CNC(=O)[C@@H]1CSCN1C(=O)[C@@H](O)[C@H](Cc1ccccc1)NC(=O)c1cccc(O)c1C` [Compound of example 34, (R)-N-(2-methylbenzyl)-3-[(2S,3S)-3-(3-hydroxy-2-methylbenzoyl)amino-2-hydroxy-4-phenylbutanoyl]-1,3-thiazolidine-4-carboxamide], under “i.d., 10.0 mg/kg”, the AUC came to 40 µg/mL/min and the “F (bioavailability on intraduodenal administration)” value was 32.26%. Where the note is “i.v., 10.0 mg/kg”, the AUC was 124 µg/mL/min, the MRT is listed as 31.9 min and the “t1/2 (λ)” value is 40.51 min.

For `CCc1c(O)cccc1C(=O)N[C@@H](Cc1ccccc1)[C@H](O)C(=O)N1CSC(C)(C)[C@H]1C(=O)NC(C)(C)C` [Compound of example 36, (R)-N-tert-butyl-3-[(2S,3S)-3-(2-ethyl-3-hydroxybenzoyl)amino-2-hydroxy-4-phenylbutanoyl]-5,5-dimethyl-1,3-thiazolidine-4-carboxamide], for the setting “i.d., 10.0 mg/kg”, the AUC is 64 µg/mL/min and the “F (bioavailability on intraduodenal administration)” value was determined as 37.01%. Under “i.v., 10.0 mg/kg”, the AUC was 174 µg/mL/min, the MRT is listed as 88.9 min and the “t1/2 (λ)” value is 83.90 min.

In the case of `Cc1ccccc1CNC(=O)[C@H]1N(C(=O)[C@@H](O)[C@H](Cc2ccccc2)NC(=O)c2cccc(O)c2C)CSC1(C)C` [Compound of example 37, (R)-N-(2-methylbenzyl)-3-[(2S,3S)-3-(3-hydroxy-2-methylbenzoyl)amino-2-hydroxy-4-phenylbutanoyl]-5,5-dimethyl-1,3-thiazolidine-4-carboxamide], where the note is “i.d., 10.0 mg/kg”, the AUC turned out to be 55 µg/mL/min and the “F (bioavailability on intraduodenal administration)” value amounted to 41.55%. Under “i.v., 10.0 mg/kg”, the AUC stood at 131 µg/mL/min, the MRT was 74.7 min and the “t1/2 (λ)” value is listed as 92.63 min.

Consider `CSC[C@H](NC(=O)COc1cccc2cnccc12)C(=O)N[C@@H](Cc1ccccc1)[C@H](O)C(=O)N1CSC[C@H]1C(=O)NC(C)(C)C` [KNI-272, (R)-3-[(2S,3S)-3-(N-(isoquinoline-5-yloxy)acetylmethylthio-L-alanyl)amino-2-hydroxy-4-phenylbutanoyl]1,3-thiazolidine-4-N'-t-butylcarboxamide, reference compound], for which, for the setting “i.d., 10.0 mg/kg”, the AUC worked out at 98 µg/mL/min and the “F (bioavailability on intraduodenal administration)” value is listed as 43.20%. For the same molecule, where the note is “i.v., 10.0 mg/kg”, the AUC came out at 224 µg/mL/min, the MRT is on record as 23.2 min and the “t1/2 (λ)” value worked out at 25.57 min.
